Assay results from US20230124862A1, “BISMUTH THIOL COMPOUNDS AND COMPOSITIONS AND METHODS OF TREATING MICROBIAL CO-INFECTIONS” (Microbion Corporation, priority 2020, published 2023).

Assays:
Test in all cases: Antifungal broth microdilution (Example 13)
Candida albicans = format: cell-based; details: 24 hr; for MIC0: complete inhibition; for MIC2: 50% inhibition
Candida glabrata = format: cell-based; details: for MIC0: complete inhibition; for MIC2: 50% inhibition
Candida krusei = format: cell-based; details: for MIC0: complete inhibition; for MIC2: 50% inhibition
Candida auris = format: cell-based; details: for MIC0: complete inhibition; for MIC2: 50% inhibition
Aspergillus spp. = format: cell-based, A. niger, A. terreus, A. fumigatus, A. flavus; details: complete inhibition, comparator, time not stated
[1] = C. albicans ATCC 90028, Susceptible
[2] = C. albicans ATCC 204276, MICA-R
[3] = C. albicans ATCC MYA-2732, FLU-R, VORI-I
[4] = C. albicans MMX 7053, Susceptible
[5] = C. albicans MMX 7067, FLU-R, VORI-R
[6] = C. albicans MMX 7403, Susceptible
[7] = C. albicans MMX 7424, CASP-R, MICA-R
[8] = C. albicans MMX 7430, Susceptible
[9] = C. albicans MMX 7445, FLU-R, VORI-R
[10] = C. glabrata ATCC 90030, Susceptible
[11] = C. glabrata ATCC MYA-2950, Susceptible
[12] = C. glabrata MMX 7087, Susceptible
[13] = C. glabrata MMX 7103, CASP-R, MICA-R
[14] = C. glabrata MMX 7111, Susceptible
[15] = C. glabrata MMX 7285, CASP-R, MICA-R
[16] = C. glabrata MMX 7307, CASP-R, MICA-R, FLU-R
[17] = C. glabrata MMX 7549, Susceptible
[18] = C. krusei ATCC 14243, Susceptible
[19] = C. krusei ATCC 96685, Susceptible
[20] = C. krusei MMX 7125, Susceptible
[21] = C. krusei MMX 7128, Susceptible
[22] = C. krusei MMX 7141, Susceptible
[23] = C. krusei MMX 7155, Susceptible
[24] = C. krusei MMX 7563, Susceptible
[25] = C. krusei MMX 9878, MICA-I, VORI-I
[26] = C. auris MMX 9863, FLU-R, VORI-R
[27] = C. auris MMX 9864, FLU-R, VORI-R
[28] = C. auris MMX 9865, FLU-R, VORI-R
[29] = C. auris MMX 9866, FLU-R, VORI-R
[30] = C. auris MMX 9867, FLU-R, VORI-R
[31] = C. auris MMX 9868, FLU-R, VORI-R
[32] = C. auris MMX 9869, FLU-R, VORI-R
[33] = C. auris MMX 9870, FLU-R, VORI-R

C[C@@H]1[C@H](O)[C@@H](C)/C=C/C=C/C=C/C=C/C=C/C=C/C=C/[C@H](O[C@@H]2O[C@H](C)[C@@H](O)[C@H](N)[C@@H]2O)C[C@@H]2O[C@](O)(C[C@@H](O)C[C@@H](O)[C@H](O)CC[C@@H](O)C[C@@H](O)CC(=O)O[C@H]1C)C[C@H](O)[C@H]2C(=O)O [AMP B]
MIC0 (Candida albicans; [1]): 0.25 µg/mL | MIC0 (Candida albicans; [2]): 0.25 µg/mL | MIC0 (Candida albicans; [3]): 0.25 µg/mL | MIC0 (Candida albicans; [4]): 0.12 µg/mL | MIC0 (Candida albicans; [5]): 0.25 µg/mL | MIC0 (Candida albicans; [6]): 0.25 µg/mL | MIC0 (Candida albicans; [7]): 0.25 µg/mL | MIC0 (Candida albicans; [8]): 0.25 µg/mL | MIC0 (Candida albicans; C. albicans MMX 7437, FLU-I): 0.25 µg/mL | MIC0 (Candida albicans; [9]): 0.12 µg/mL | MIC0 (Candida glabrata; [10]): 0.25 µg/mL | MIC0 (Candida glabrata; [11]): 0.12 µg/mL | MIC0 (Candida glabrata; [12]): 0.12 µg/mL | MIC0 (Candida glabrata; C. glabrata MMX 7093, FLU-R): 0.25 µg/mL | MIC0 (Candida glabrata; C. glabrata MMX 7101, FLU-R): 0.25 µg/mL | MIC0 (Candida glabrata; [13]): 0.25 µg/mL | MIC0 (Candida glabrata; [14]): 0.25 µg/mL | MIC0 (Candida glabrata; [15]): 0.25 µg/mL | MIC0 (Candida glabrata; [16]): 0.25 µg/mL | MIC0 (Candida glabrata; [17]): 0.25 µg/mL | MIC0 (Candida krusei; C. krusei ATCC 6258, MICA-I): 0.5 µg/mL | MIC0 (Candida krusei; [18]): 0.25 µg/mL | MIC0 (Candida krusei; [19]): 0.5 µg/mL | MIC0 (Candida krusei; [20]): 0.5 µg/mL | MIC0 (Candida krusei; [21]): 0.5 µg/mL | MIC0 (Candida krusei; [22]): 0.25 µg/mL | MIC0 (Candida krusei; C. krusei MMX 7153, MICA-R): 0.5 µg/mL | MIC0 (Candida krusei; [23]): 0.25 µg/mL | MIC0 (Candida krusei; [24]): 0.5 µg/mL | MIC0 (Candida krusei; [25]): 0.5 µg/mL | MIC0 (Candida auris; C. auris MMX 9862, Susceptible): 0.25 µg/mL | MIC0 (Candida auris; [26]): 0.12 µg/mL | MIC0 (Candida auris; [27]): 0.25 µg/mL | MIC0 (Candida auris; [28]): 0.25 µg/mL | MIC0 (Candida auris; [29]): 0.5 µg/mL | MIC0 (Candida auris; [30]): 0.5 µg/mL | MIC0 (Candida auris; [31]): 0.25 µg/mL | MIC0 (Candida auris; [32]): 1 µg/mL | MIC0 (Candida auris; [33]): 1 µg/mL | MIC0 (Candida auris; C. auris MMX 9871, Susceptible): 1 µg/mL | MIC0 (Aspergillus spp.; A. flavus ATCC 22546): 1 µg/mL | MIC0 (Aspergillus spp.; A. flavus ATCC 204304): 1 µg/mL | MIC0 (Aspergillus spp.; A. flavus MMX 7935): 1 µg/mL | MIC0 (Aspergillus spp.; A. fumigatus ATCC 204305): 1 µg/mL | MIC0 (Aspergillus spp.; A. fumigatus ATCC MYA-3626): 1 µg/mL | MIC0 (Aspergillus spp.; A. fumigatus MMX 5934): 1 µg/mL | MIC0 (Aspergillus spp.; A. fumigatus MMX 5938): 1 µg/mL | MIC0 (Aspergillus spp.; A. fumigatus MMX 5939): 1 µg/mL | MIC0 (Aspergillus spp.; A. niger ATCC 29508): 0.25 µg/mL | MIC0 (Aspergillus spp.; A. terreus MMX 8229): 0.25 µg/mL

C[C@@H](c1ncncc1F)[C@](O)(Cn1cncn1)c1ccc(F)cc1F [VORI]
MIC2 (Candida albicans; [1]): ≤0.008 µg/mL | MIC2 (Candida albicans; [2]): ≤0.008 µg/mL | MIC2 (Candida albicans; [3]): 0.5 µg/mL | MIC2 (Candida albicans; [4]): ≤0.008 µg/mL | MIC2 (Candida albicans; [5]): >8 µg/mL | MIC2 (Candida albicans; [6]): ≤0.008 µg/mL | MIC2 (Candida albicans; [7]): ≤0.008 µg/mL | MIC2 (Candida albicans; [8]): ≤0.008 µg/mL | MIC2 (Candida albicans; C. albicans MMX 7437, FLU-I): 0.12 µg/mL | MIC2 (Candida albicans; [9]): >8 µg/mL | MIC2 (Candida glabrata; [10]): 0.12 µg/mL | MIC2 (Candida glabrata; [11]): 0.12 µg/mL | MIC2 (Candida glabrata; [12]): 0.03 µg/mL | MIC2 (Candida glabrata; C. glabrata MMX 7093, FLU-R): 2 µg/mL | MIC2 (Candida glabrata; C. glabrata MMX 7101, FLU-R): 2 µg/mL | MIC2 (Candida glabrata; [13]): 0.12 µg/mL | MIC2 (Candida glabrata; [14]): 0.06 µg/mL | MIC2 (Candida glabrata; [15]): 1 µg/mL | MIC2 (Candida glabrata; [16]): 4 µg/mL | MIC2 (Candida glabrata; [17]): 0.06 µg/mL | MIC2 (Candida krusei; C. krusei ATCC 6258, MICA-I): 0.12 µg/mL | MIC2 (Candida krusei; [18]): 0.06 µg/mL | MIC2 (Candida krusei; [19]): 0.5 µg/mL | MIC2 (Candida krusei; [20]): 0.25 µg/mL | MIC2 (Candida krusei; [21]): 0.12 µg/mL | MIC2 (Candida krusei; [22]): 0.12 µg/mL | MIC2 (Candida krusei; C. krusei MMX 7153, MICA-R): 0.25 µg/mL | MIC2 (Candida krusei; [23]): 0.25 µg/mL | MIC2 (Candida krusei; [24]): 0.25 µg/mL | MIC2 (Candida krusei; [25]): 1 µg/mL | MIC2 (Candida auris; C. auris MMX 9862, Susceptible): 0.03 µg/mL | MIC2 (Candida auris; [26]): >8 µg/mL | MIC2 (Candida auris; [27]): 7 µg/mL | MIC2 (Candida auris; [28]): 8 µg/mL | MIC2 (Candida auris; [29]): 8 µg/mL | MIC2 (Candida auris; [30]): 8 µg/mL | MIC2 (Candida auris; [31]): >8 µg/mL | MIC2 (Candida auris; [32]): 2 µg/mL | MIC2 (Candida auris; [33]): 4 µg/mL | MIC2 (Candida auris; C. auris MMX 9871, Susceptible): 1 µg/mL | MIC0 (Aspergillus spp.; A. flavus ATCC 22546): 1 µg/mL | MIC0 (Aspergillus spp.; A. flavus ATCC 204304): 2 µg/mL | MIC0 (Aspergillus spp.; A. flavus MMX 7935): 0.5 µg/mL | MIC0 (Aspergillus spp.; A. fumigatus ATCC 204305): 0.5 µg/mL | MIC0 (Aspergillus spp.; A. fumigatus ATCC MYA-3626): 0.5 µg/mL | MIC0 (Aspergillus spp.; A. fumigatus MMX 5934): 0.25 µg/mL | MIC0 (Aspergillus spp.; A. fumigatus MMX 5938): 0.25 µg/mL | MIC0 (Aspergillus spp.; A. fumigatus MMX 5939): 7 µg/mL | MIC0 (Aspergillus spp.; A. niger ATCC 29508): 0.5 µg/mL | MIC0 (Aspergillus spp.; A. terreus MMX 8229): 0.25 µg/mL
